Experimental data as given in ChEMBL document CHEMBL2086273, “Significant activity of ecdysteroids on the resistance to doxorubicin in mammalian cancer cells expressing the human ABCB1 transporter” (J Med Chem, 2012).

Legend:
Type in all cases: cell-based
[1] = target: T1, ATP-dependent translocase ABCB1 (Homo sapiens, UniProt P08183); assay: Inhibition of human ABCB1 pump expressed in mouse L5178 cells assessed as fluorescence activity ratio at 20 uM for 10 mins by flow cytometry relative to control; settings: l5178, 10 min
T1 sequence (P08183 whole entry): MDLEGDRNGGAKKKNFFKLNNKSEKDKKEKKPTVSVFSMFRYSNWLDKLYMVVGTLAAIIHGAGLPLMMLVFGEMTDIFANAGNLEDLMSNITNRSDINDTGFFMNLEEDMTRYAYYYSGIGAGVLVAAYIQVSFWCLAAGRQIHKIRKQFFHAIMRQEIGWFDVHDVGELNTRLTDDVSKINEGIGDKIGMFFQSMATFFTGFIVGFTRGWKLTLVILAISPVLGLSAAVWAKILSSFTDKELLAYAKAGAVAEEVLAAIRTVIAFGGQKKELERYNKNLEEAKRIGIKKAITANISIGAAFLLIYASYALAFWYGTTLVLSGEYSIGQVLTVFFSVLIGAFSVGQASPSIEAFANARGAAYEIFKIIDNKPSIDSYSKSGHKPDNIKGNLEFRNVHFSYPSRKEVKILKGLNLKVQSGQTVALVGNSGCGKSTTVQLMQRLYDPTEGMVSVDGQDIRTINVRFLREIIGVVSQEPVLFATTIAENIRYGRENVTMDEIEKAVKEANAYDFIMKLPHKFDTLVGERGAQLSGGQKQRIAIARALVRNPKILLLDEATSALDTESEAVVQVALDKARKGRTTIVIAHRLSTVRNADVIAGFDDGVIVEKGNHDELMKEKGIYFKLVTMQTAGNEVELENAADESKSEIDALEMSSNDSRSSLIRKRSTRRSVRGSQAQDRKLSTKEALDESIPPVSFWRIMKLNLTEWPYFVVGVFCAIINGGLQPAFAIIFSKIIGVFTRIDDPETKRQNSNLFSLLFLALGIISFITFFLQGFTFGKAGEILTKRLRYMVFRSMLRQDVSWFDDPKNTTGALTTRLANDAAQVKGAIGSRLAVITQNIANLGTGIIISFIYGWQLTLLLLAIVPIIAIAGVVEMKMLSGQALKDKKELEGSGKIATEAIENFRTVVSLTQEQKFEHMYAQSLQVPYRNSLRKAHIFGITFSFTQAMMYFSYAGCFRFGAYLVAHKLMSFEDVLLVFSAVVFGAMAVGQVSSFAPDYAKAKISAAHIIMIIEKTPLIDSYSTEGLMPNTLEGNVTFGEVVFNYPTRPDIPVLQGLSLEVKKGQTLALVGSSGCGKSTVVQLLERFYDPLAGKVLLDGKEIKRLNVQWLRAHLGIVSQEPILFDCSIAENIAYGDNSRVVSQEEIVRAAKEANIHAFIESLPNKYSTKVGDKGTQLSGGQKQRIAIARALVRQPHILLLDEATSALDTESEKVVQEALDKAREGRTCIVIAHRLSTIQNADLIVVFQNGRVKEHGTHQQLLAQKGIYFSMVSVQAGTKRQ

[2] = target: T1, ATP-dependent translocase ABCB1; assay: Inhibition of human ABCB1 expressed in mouse L5178 cells assessed as 50% inhibition of cell proliferation at compound-doxorubicin ratio of 20.4:1 after 48 hrs by MTT assay; settings: l5178, 48 h
[3] = target: T1, ATP-dependent translocase ABCB1; assay: Inhibition of human ABCB1 expressed in mouse L5178 cells assessed as 75% inhibition of cell proliferation at compound-doxorubicin ratio of 20.4:1 after 48 hrs by MTT assay; settings: l5178, 48 h
[4] = target: T1, ATP-dependent translocase ABCB1; assay: Inhibition of human ABCB1 expressed in mouse L5178 cells assessed as 95% inhibition of cell proliferation at compound-doxorubicin ratio of 20.4:1 after 48 hrs by MTT assay; settings: l5178, 48 h
[5] = target: T1, ATP-dependent translocase ABCB1; assay: Inhibition of human ABCB1 expressed in mouse L5178 cells assessed as 50% inhibition of cell proliferation at compound-doxorubicin ratio of 81.5:1 after 48 hrs by MTT assay; settings: l5178, 48 h
[6] = target: T1, ATP-dependent translocase ABCB1; assay: Inhibition of human ABCB1 expressed in mouse L5178 cells assessed as 75% inhibition of cell proliferation at compound-doxorubicin ratio of 81.5:1 after 48 hrs by MTT assay; settings: l5178, 48 h
[7] = target: T1, ATP-dependent translocase ABCB1; assay: Inhibition of human ABCB1 expressed in mouse L5178 cells assessed as 95% inhibition of cell proliferation at compound-doxorubicin ratio of 81.5:1 after 48 hrs by MTT assay; settings: l5178, 48 h

| Structure (SMILES) | Ratio [1] | fractional inhibitory concentration index (FICI) [2] | fractional inhibitory concentration index (FICI) [3] | fractional inhibitory concentration index (FICI) [4] | fractional inhibitory concentration index (FICI) [5] | fractional inhibitory concentration index (FICI) [6] | fractional inhibitory concentration index (FICI) [7] |
| --- | --- | --- | --- | --- | --- | --- | --- |
| CC(C)(O)CC[C@H]1OC(C)(C)O[C@]1(C)[C@H]1CC[C@@]2(O)C3=CC(=O)[C@@H]4C[C@H]5OC(C)(C)O[C@H]5[C@@H](O)[C@]4(C)[C@H]3CC[C@]12C | 2.53 | 1.23 | 0.49 | 0.24 | – | – | – |
| CC(C)(O)CC[C@H]1OC(C)(C)O[C@]1(C)[C@H]1CC[C@@]2(O)C3=CC(=O)[C@]4(O)C[C@@H](O)[C@@H](O)C[C@]4(C)[C@H]3CC[C@]12C | 1.8 | – | – | – | 0.63 | 0.21 | 0.11 |
| CC(=O)[C@H]1CC[C@@]2(O)C3=CC(=O)[C@@H]4C[C@@H](O)[C@@H](O)C[C@]4(C)C3=CC[C@]12C | 5.4 | – | – | – | 1.21 | 0.67 | 0.37 |
| CC(C)(O)CC[C@@H](O)[C@](C)(O)[C@H]1CC[C@@]2(O)C3=CC(=O)[C@@H]4C[C@@H](O)[C@@H](O)[C@@H](O)[C@]4(C)[C@H]3CC[C@]12C [INTEGRISTERONE A] | 0.94 | – | – | – | 0.8 | 1.31 | 2.42 |
| C[C@H]([C@H](O)CCC(C)(C)O)[C@H]1CC[C@@]2(O)C3=CC(=O)[C@@H]4C[C@@H](O)CC[C@]4(C)[C@H]3CC[C@]12C | 0.94 | – | – | – | 2.05 | 1.27 | 0.81 |
| CC(C)CC[C@@H](O)[C@](C)(O)[C@H]1CC[C@@]2(O)C3=CC(=O)[C@@H]4C[C@@H](O)[C@@H](O)C[C@]4(C)[C@H]3CC[C@]12C [PONASTERONE A] | 1.26 | – | – | – | 1.41 | 0.78 | 0.44 |
| CC(C)(O)CC[C@@H](O)[C@](C)(O)[C@H]1CC[C@@]2(O)C3=CC(=O)[C@@]4(O)C[C@@H](O)CC[C@]4(C)[C@H]3CC[C@]12C | 1.21 | – | – | – | 0.78 | 0.45 | 0.27 |
| CC(C)(O)CC[C@@H](O)[C@](C)(O)[C@H]1CC[C@@]2(O)C3=CC(=O)[C@H]4C[C@@H](O)[C@@H](O)C[C@]4(C)[C@H]3CC[C@]12C | 0.81 | – | – | – | 0.99 | 0.57 | 0.37 |
| CC(=O)O[C@H](CCC(C)(C)O)[C@](C)(O)[C@H]1CC[C@@]2(O)C3=CC(=O)[C@@H]4C[C@@H](O)[C@@H](O)C[C@]4(C)[C@H]3CC[C@]12C | 1.54 | – | – | – | 1.6 | 0.97 | 0.64 |
| CC(C)(O)CC[C@H]1OC(C)(C)O[C@]1(C)[C@H]1CC[C@@]2(O)C3=CC(=O)[C@@H]4C[C@@H](O)[C@@H](O)C[C@]4(C)[C@H]3CC[C@]12C | 1.53 | 0.84 | 0.54 | 0.35 | – | – | – |
| CC(C)(O)CCC[C@](C)(O)[C@H]1CC[C@@]2(O)C3=CC(=O)[C@@H]4C[C@@H](O)[C@@H](O)C[C@]4(C)[C@H]3CC[C@]12C | 0.67 | – | – | – | 2.04 | 1.75 | 1.59 |
| C[C@H]([C@H](O)CCC(C)(C)O)[C@H]1CC[C@@]2(O)C3=CC(=O)[C@@H]4C[C@@H](O)[C@@H](O)C[C@]4(C)[C@H]3CC[C@]12C [ECDYSONE] | 1.38 | – | – | – | 2.31 | 4.89 | 12.16 |
| CC(C)CC[C@H]1OC(C)(C)O[C@]1(C)[C@H]1CC[C@@]2(O)C3=CC(=O)[C@@H]4C[C@@H](O)[C@@H](O)C[C@]4(C)[C@H]3[C@H](O)C[C@]12C | 1.93 | 0.52 | 0.25 | 0.13 | – | – | – |
| CC(=O)O[C@H](CCC(C)(C)O)[C@](C)(O)[C@H]1CC[C@@]2(O)C3=CC(=O)[C@@H]4C[C@@H](O)CC[C@]4(C)[C@H]3CC[C@]12C | 1.21 | – | – | – | 1.03 | 0.66 | 0.44 |
| CC(C)CC[C@@H](O)[C@](C)(O)[C@H]1CC[C@@]2(O)C3=CC(=O)[C@]4(O)C[C@@H](O)[C@@H](O)C[C@]4(C)[C@H]3[C@H](O)C[C@]12C [MURISTERONE A] | 0.74 | – | – | – | – | – | – |
| CC1(C)CC[C@H]([C@](C)(O)[C@H]2CC[C@@]3(O)C4=CC(=O)[C@@H]5C[C@@H](O)[C@@H](O)C[C@]5(C)[C@H]4CC[C@]23C)O1 [SHIDASTERONE] | 0.88 | – | – | – | 1.44 | 0.32 | 0.096 |
| CC(C)(O)CC[C@@H](O)[C@](C)(O)[C@H]1CC[C@@]2(O)C3=CC(=O)[C@@H]4C[C@@H](O)[C@@H](O)C[C@]4(C)[C@H]3[C@H](O)C[C@]12C [TURKESTERONE] | 0.93 | – | – | – | 5.19 | 4.53 | 4.2 |
| CC(C)(O)CC[C@@H](O)[C@](C)(O)[C@H]1CC[C@@]2(O)C3=CC(=O)[C@H]4C[C@@H](O)C[C@@H](O)[C@]4(C)[C@H]3CC[C@]12C | 0.68 | 2.48 | 1.7 | 1.97 | – | – | – |
| CC(C)(O)CC[C@@H](O)[C@](C)(O)[C@H]1CC[C@@]2(O)C3=CC(=O)[C@@H]4C[C@@H](O)[C@@H](O)C[C@]4(C)C3=CC[C@]12C | 1.24 | – | – | – | 2.66 | 3.35 | 4.61 |
| CC(=O)O[C@H]1CC[C@@]2(C)[C@@H](C1)C(=O)C=C1[C@@H]2CC[C@]2(C)[C@@H]([C@H](C)[C@@H](CCC(C)(C)O)OC(C)=O)CC[C@@]12O | 0.97 | 1.5 | 0.86 | 0.5 | – | – | – |
| CC(=O)O[C@H]1C[C@@]2(C)[C@@H](C[C@H]1OC(C)=O)C(=O)C=C1[C@@H]2CC[C@]2(C)[C@@H]([C@@](C)(O)[C@@H](CCC(C)(C)OC(C)=O)OC(C)=O)CC[C@@]12O | 8.55 | 0.73 | 0.29 | 0.13 | – | – | – |
| CCC1=C(C)C(=O)O[C@@H]([C@](C)(O)[C@H]2CC[C@@]3(O)C4=CC(=O)[C@@H]5C[C@@H](O)[C@@H](O)C[C@]5(C)[C@H]4CC(=O)[C@]23C)C1 [AJUGALACTONE] | 0.87 | – | – | – | 1.43 | 1.96 | 2.89 |
| CC(C)(O)CC[C@@H](O)[C@](C)(O)[C@H]1CC[C@@]2(O)C3=CC(=O)[C@]4(O)C[C@@H](O)[C@@H](O)C[C@]4(C)[C@H]3CC[C@]12C [POLYPODINE B] | 0.77 | 1.11 | 0.8 | 0.58 | – | – | – |
| CC[C@H](C[C@H]1OC(C)(C)O[C@]1(C)[C@H]1CC[C@@]2(O)C3=CC(=O)[C@@H]4C[C@@H](O)[C@@H](O)C[C@]4(C)[C@H]3CC[C@]12C)C(C)(C)O | 1.21 | – | – | – | 0.81 | 0.26 | 0.091 |
| CC(C)(CC[C@@H](O)[C@](C)(O)[C@H]1CC[C@@]2(O)C3=CC(=O)[C@@H]4C[C@@H](O)CC[C@]4(C)[C@H]3CC[C@]12C)O[C@@H]1O[C@H](CO)[C@@H](O)[C@H](O)[C@H]1O | 0.68 | – | – | – | 1.05 | 0.72 | 0.51 |
| CC(=O)O[C@H]1C[C@]2(C)[C@H]3CC[C@]4(C)[C@@H]([C@@](C)(O)[C@@H](CCC(C)(C)OC(C)=O)OC(C)=O)CC[C@@]4(O)C3=CC(=O)[C@]2(O)C[C@H]1OC(C)=O | 1.48 | – | – | – | 0.65 | 0.46 | 0.38 |
| CC(C)(O)CC[C@H]1OC(C)(C)O[C@]1(C)[C@H]1CC[C@@]2(O)C3=CC(=O)[C@H]4C[C@@H](O)CC[C@]4(C)[C@H]3CC[C@]12C | 8.19 | – | – | – | 1.28 | 0.69 | 0.37 |
